Columns and labels:
[1] = test system: cells; test: cell toxicity of orthovanadate and H2 O2; type: cell-based; settings: 1 mM H2 O2, 24 hours
Method: Orthovanadate was thought in view of the investigations described in Examples 1-3, to react with H2 O2 to form hydroxyl radicals which are extremely toxic. If the orthovanadate induced formation of hydroxyl radicals is responsible for cell toxicity, then adding exogenous H2 O2 should enhance the effects of orthovanadate. Accordingly, cells were incubated in media alone or containing 1 mM H2 O2 or 10 μM orthovanadate or both for 24 hours. The cells were harvested and cell viability determined.

[2] = test system: fos; test: fos / c-fos mRNA expression in chondrocytes (Northern blot); type: cell-based, bovine; settings: stimulus alone; H2 O2 30, 60 and 90 minutes; IL-1, PMA or AA (3 μM) 1 hour
Method: The cytokine interleukin 1 (IL 1) has been used to identify the intermediate second messengers which regulate the expression of fos and jun.
In order to elucidate this possibility, the effect of DPI on fos and jun mRNA levels induced by IL 1 was investigated. RNA from chondrocytes treated with IL 1 in the presence and absence of DPI were analyzed by Northern blot analysis using either fos or collagenase cDNA probes.
Since superoxides are rapidly converted to hydrogen peroxide in the cell by superoxide dismutase, whether hydrogen peroxide could mimic the effect of IL 1 in the induction of fos expression was investigated. RNA was extracted from chondrocytes (Kandel et al. supra) treated with H2 O2 for 30, 60 and 90 minutes and examined by Northern blot analysis using a fos cDNA probe.
Bovine articular chondrocytes were isolated and plated as previously described (Kandel R. A. et al. Biochim. Biophys. Acta. 1053, 130-134, 1990). […] The amount of ^3 H-AA liberated into the supernatant was determined. To measure PGE2 production, chondrocytes were incubated for 6 hours in Ham's F12 medium, either alone or with IL 1 or PMA. […] In order to examine the expression of c-fos and c-jun, chondrocytes were incubated for 1 hour in the presence of IL-1, PMA or AA (3 μM). Chondrocytes were washed in PBS and the total RNA extracted as previously described (Cruz. et al, 1991, Biochem. J. 277, 327-330). RNA samples were run on formaldehyde agarose gels and transferred to nylon membrane for northern analysis using cDNA probes for c-fos and c-jun.
The RNA was extracted and examined by Northern blot analysis using cDNA probes for c-fos and collagenase.

[3] = test system: MCF7 (WT); test: MTT cytotoxicity assay, MCF7 (WT); type: cell-based, human; settings: MCF7 (WT), 72 hours; read-out: IC50 Value
Method: (§1) The relative cytotoxicity of various compounds on tumor cell lines was investigated as follows. Cytotoxicity was measured by the MTT microculture tetrazolium colorimetric assay for all cell lines. The relative cytotoxicity of Na3 VO4 and VOSO4 was investigated using the following tumor cell lines: P388(WT) murine leukemia, P388 (ADR) murine leukemia, Lewis murine lung, MCF7 (WT) human breast, […] human lung, K562 human erythroleukemia, A431 human epidermal, LS180 human colon and SK-OV-3 human ovarian. The relative cytotoxicity of doxorubicin, Na3 VO4 and VOSO4 was investigated using the following tumor cell lines: P388(WT) murine leukemia, P388 (ADR) murine leukemia, MCF7(WT) human breast and MCF7 (ADR) human breast. The relative cytotoxicity of BMOV, BEOV and naglivan was investigated using the following tumor cell lines: P388(WT) murine leukemia, P388 (ADR) murine leukemia, Lewis murine lung, H460 human lung, K562 human erythroleukemia, and SK-OV-3 human ovarian.
(§2) The cells were plated (number of cells/well was different from cell line to cell depending on the dividing rate) in a 96-well microculture plate 24 hours prior to the delivery of the vanadium compounds. Serial concentrations of solutions of the test compounds (0.05-100 μM) were delivered to the corresponding wells. A blank column (without cells) and a control column (with cells without vanadium) were left. The cells were incubated for 72 hours continuously. An MTT solution was added to each well after this incubation period and the cells were incubated for 4 more hours for the completion of the dyeing process. The medium was removed find DMSO was added to each well. The absorbance of each well was read with a Titertek Multiskan (310C) spectrophotometer at 570 nm. The percentage of the absorbance of each vanadium concentration relative to the control calculated and the value of the 50% growth inhibition concentration (IC50) was obtained from the % control versus concentration plot. Each assay was repeated three times and the reported IC50 values were the mean of these three runs.

[4] = test system: MCF7 (ADR); test: MTT cytotoxicity assay, MCF7 (ADR); type: cell-based, human; settings: MCF7 (ADR), 72 hours; read-out: IC50 Value
Method: as §1, §2

[5] = test system: A431; test: MTT cytotoxicity assay, A431; type: cell-based, human; settings: A431, 72 hours
Method: as §1
(§3) The cells were plated (number of cells/well was different from cell line to cell depending on the dividing rate) in a 96-well microculture plate 24 hours prior to the delivery of the vanadium compounds. Serial concentrations of solutions of the test compounds (0.05-100 μM) were delivered to the corresponding wells. […] The absorbance of each well was read with a Titertek Multiskan (310C) spectrophotometer at 570 nm. […]

[6] = test system: K562; test: MTT cytotoxicity assay, K562; type: cell-based, human; settings: K562, 72 hours
Method: as §1
as §2, with “Serial concentrations of solutions of the test compounds (0.05-100 μM) were delivered to the corresponding wells.” left out

[7] = test system: P388 (WT); test: MTT cytotoxicity assay, P388 (WT); type: cell-based, murine; settings: P388 (WT), 72 hours; read-out: IC50 Value
Method: as §1, §2

[8] = test system: SK-OV-3; test: MTT cytotoxicity assay, SK-OV-3; type: cell-based, human; settings: SK-OV-3, 72 hours
Method: as §1, §2

[9] = test system: synoviocytes; test: synoviocyte proliferation, dye exclusion (Example 24); type: cell-based
Method: The effect of vanadium compounds on synoviocyte proliferation was investigated as follows. Synoviocytes were plated on six well plates and treated with orthovanadate or vanadyl sulphate and incubated for 24 hours. The cells were removed and the number of viable cells determined by the dye exclusion method.

[10] = test system: metastases of MDAY-D2 cells; test: liver metastases of MDAY-D2 cells (histology); type: in vivo, mice; settings: 500 μg/day; preliminary results
Description: (§4) In order to examine the ability of vanadyl compounds to reduce tumor formation, growth and metastases, a specific animal model which allows investigation of all of these processes in the same animal was chosen. This model involves the injection of a metastatic haematopoietic cell line, MDAY-D2, into mice subcutaneously. These cells form a tumor at the site of injection and its size can be easily determined. In addition, these cells metastasize to the liver and metastases can be detected histologically after day 17 to 19. This model provides a very sensitive and reproducible approach to investigate the effect of vanadyl compounds on tumor growth and metastases.
The metastatic liver was obtained from an animal 24 days following the administration MDAY-D2 cells. The nodules are quite numerous and large.
Livers were removed from animals treated as described above and prepared for histological examination. FIG. 16 compares liver sections from untreated (C), orthovanadate (VO)(500 μg/day) and vanadyl sulphate (VS)(500 μg/day) treated animals. Nodules are identified with an arrow.

[11] = test system: MDAY-D2 cells; test: viability of MDAY-D2 cells; type: cell-based, mouse; settings: 0-50 μM, 48 hours, three forms compared
Method: Fos and jun activity are also required for cellular proliferation in many tumor cell lines. Accordingly, the effect of orthovanadate on adherent cells and cell suspensions were examined. MDAY-D2 (a mouse lymphoid cell line grown in suspension) and HTB14 cells (an adherent human primary astrocytoma cell line) were incubated in media containing 0-50 μM orthovanadate for 48 hours. The cells were harvested and the number of viable cells determined.
Three different forms of vanadyl compounds were examined for their effect on viability of cancer cell lines. MDAY-D2 cells were incubated in media containing 0-50 μM orthovanadate, vanadyl sulphate, or vanadyl hydroperoxide for 48 hours. The cells were harvested and the number of viable cells determined. […] Although there were slight differences in sensitivity, the overall cell death was similar.

[12] = test system: MDAY-D2 tumor; test: MDAY-D2 tumor growth in vivo, orthovanadate, vanadyl sulphate, vanadyl hydroperoxide (Example 6B); parameters: species or system mice
Description: as §4
In a separate experiment using the same animal model, the effect of orthovanadate, vanadyl sulphate and vanadyl hydroperoxide administration on tumor growth in vivo was examined. On Day 1, 20 mice were injected with 2×10^5 MDAY-D2 cell subcutaneously. The mice were divided into four groups of five mice. At day 5, the animals were injected subcutaneously with 50 μl of water alone or containing 10 mg/ml of orthovanadate, 10 mg/ml of vanadyl sulphate, or 10 mg/ml of vanadyl hydroperoxide. This treatment was continued daily for 16 days. At day 21, the mice were sacrificed and the tumors dissected and weighed.

[13] = test system: P388 (ADR); test: MTT cytotoxicity assay, P388 (ADR); type: cell-based, murine; settings: P388 (ADR), 72 hours; read-out: IC50 Value
Method: as §1, §2

[14] = test system: H460; test: MTT cytotoxicity assay, H460; type: cell-based, human; settings: H460, 72 hours
Method: as §1, §2

[15] = test system: Lewis lung; test: MTT cytotoxicity assay, Lewis lung; type: cell-based, murine; settings: 72 hours
Method: as §1, §2

[16] = test system: carcinogenesis; settings: dietary; cited from earlier work
[17] = test system: LS180; test: MTT cytotoxicity assay, LS180; type: cell-based, human; settings: LS180, 72 hours
Method: as §1, §3

SMILES | effect on cell toxicity, H2 O2 alone [1] | stimulation of fos / c-fos expression [2] | IC50 [3] | IC50 [4] | IC50 [5] | IC50 [6] | IC50 [7] | IC50 [8] | cytotoxicity to synoviocytes [9] | Number of cells ([9]; 25 μM, 24 hours (control 2.6)) | synoviocyte proliferation ([9]; 24 hours) | metastases in liver [10] | killing of MDAY-D2 cells [11] | animal deaths ([12]; groups of five, 10 mg/ml, 50 μl daily s.c.) | efficacy in reducing tumor growth ([12]; mouse, in vivo) | IC50 [13] | IC50 [14] | IC50 [15] | chemically induced mammary carcinogenesis in rats [16] | IC50 [17]
OO [H2 O2, hydrogen peroxide] | small effect | stimulates |  |  |  |  |  |  |  |  |  |  |  |  |  |  |  |  |  | 
O=S(=O)([O-])[O-].[O]=[V+2] [vanadyl sulphate] |  |  | 10.5 µM | 31.3 µM | 29.1 µM | > 100 µM | 16.1 µM | 1.9 µM | cytotoxic to the cells | 0.2 10^-5 | inhibited synoviocyte proliferation | did not have detectable levels of metastases | equally effective | One animal died | less effective | 29.8 µM | 9.3 µM | 27.3 µM | inhibit | 31.9 µM
